# Data as given in patent US20050085447A1, “Pyrido[3,4-d]pyrimidine derivatives as matrix metalloproteinase-13 inhibitors” (Warner-Lambert Company LLC, priority 2003, published 2005).
# Columns and labels:
# [1] = system: male Wistar rats; test: Monosodium iodoacetate-induced osteoarthritis in rat model of cartilage damage (MIA Rat); assay type: in vivo; conditions: for inhibition of cartilage erosion (surface area of erosion) versus vehicle control / rats in the treatment group that exhibited no cartilage erosion: 4 weeks
# From the text: One end result of the induction of osteoarthritis in this model, as determined by histologic analysis, is the development of an osteoarthritic condition within the affected joint, as characterized by the loss of Toluidine blue staining and formation of osteophytes. Associated with the histologic changes is a concentration-dependent degradation of joint cartilage, as evidenced by affects on hind-paw weight distribution of the limb containing the affected joint, the presence of increased amounts of proteoglycan or hydroxyproline in the joint upon biochemical analysis, or histopathological analysis of the osteoarthritic lesions.
# In the MIA Rat model on Day 0, the hind-paw weight differentials between the right arthritic joint and the left healthy joint of male Wistar rats (150 g) were determined with an incapacitance tester, model 2KG (Linton Instrumentation, Norfolk, United Kingdom). […] Then the rats were anesthetized with isofluorine, and the right, hind leg knee joint was injected with 1.0 mg of mono-iodoacetate (“MIA”) through the infrapatellar ligament. […] The rats were further administered either the compound of Compound Example 1 or vehicle (in the instant case, water) daily for 14 days or 28 days. The compound of Compound Example 1 was administered at doses of 1, 3, 10, and 30 milligrams per kilogram of rat per day, but invention compounds may be administered at other doses such as, for example, 60 mg/kg/day, 90-mg/kg/day, or 100 mg/kg/day according to the requirements of the compound being studied. It is well within the level of ordinary skill in the pharmaceutical arts to determine a proper dosage of an invention compound in this model.
# Generally, an invention compound may be administered in this model by oral administration, but optionally intravenous administration via an osmotic pump could be employed. After 7 and 14 days for a two-week study, or 7, 14, and 28 days for a four-week study, the hind-paw weight distribution may be determined. […] This change in weight distribution was proportional to the degree of joint cartilage damage. Percent inhibition of a change in hind paw joint function was calculated as the percent change in hind-paw weight distribution for treated animals versus control animals. For example, for a two week study,
# In the present study the compound of Compound Example 1 was administered perorally, and hind-paw weight differentials were determined at both 2 and 4 weeks. Further, in order to detect the presence of erosion of cartilage in the joints, the animals in the above study were sacrificed at 4 weeks, and the presence or absence of cartilage erosion was determined. The proportion of subjects without hind limb erosions was determined via an Exact Sequential Cochran-Armitage Trend test (SAS® Institute, 1999). The Cochran-Armitage Trend test was employed to determine whether the proportion of positive or “Yes” responders increases or decreases with increasing levels of treatment. For this particular study, it was expected that the number of animals without joint erosions increased with increasing dose.
# [2] = molecular target: T1, MMP-7 full-length (Homo sapiens, UniProt P09237); test: Thiopeptolide substrate hydrolysis inhibition assay, MMP-7 full-length; assay type: biochemical; conditions: full-length enzyme; read-out: MMP-7FL IC50
# T1 construct: MMP-3 catalytic domain, MMP-7 full-length, MMP-8 full-length
# T1 sequence (P09237 95-267): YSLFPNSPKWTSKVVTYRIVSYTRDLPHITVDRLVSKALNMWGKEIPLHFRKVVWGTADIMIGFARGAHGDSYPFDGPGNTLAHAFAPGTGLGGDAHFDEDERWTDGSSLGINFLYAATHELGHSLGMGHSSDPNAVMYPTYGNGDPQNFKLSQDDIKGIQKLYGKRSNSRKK
# From the text: The assay methods of Biological Examples 1-4 measure the amount by which a test compound reduces the hydrolysis of a thiopeptolide substrate catalyzed by a matrix metalloproteinase enzyme or catalytic domain thereof. It has been shown previously by Ye Qi-Zhuang, Hupe D., and Johnson L. (Current Medicinal Chemistry, 1996;3:407-418) that inhibitor activity against a catalytic domain of an MMP is predictive of the inhibitor activity against the respective full-length MMP enzyme. The methods described below for the inhibition of MMP-13 may also be adapted and used to determine the ability of the compounds of Formula I to inhibit other matrix metalloproteases such as MMP-1, MMP-2, MMP-3, MMP-7, MMP-8, MMP-9, MMP-12, MMP-14, MMP-17, and the like.
# Thiopeptolide substrates show virtually no decomposition or hydrolysis at or below neutral pH in the absence of a matrix metalloproteinase enzyme. A typical thiopeptolide substrate commonly utilized for assays is Ac-Pro-Leu-Gly-thioester-Leu-Leu-Gly-OEt. A 100 μL assay mixture will contain 50 mM of N-2-hydroxyethylpiperazine-N′-2-ethanesulfonic acid buffer (“HEPES,” pH 7.0), 10 mM CaCl2, 100 μM thiopeptolide substrate, and 1 mM 5,5′-dithio-bis-(2-nitro-benzoic acid) (DTNB). […] The change in absorbance at 405 nm is monitored on a Thermo Max microplate reader (molecular Devices, Menlo Park, Calif.) at room temperature (22° C.). The calculation of the amount of hydrolysis of the thiopeptolide substrate is based on E412=13600 M^−1 cm^−1 for the DTNB-derived product 3-carboxy-4-nitrothiophenoxide. Assays are carried out with and without matrix metalloproteinase inhibitor compounds, and the amount of hydrolysis is compared for a determination of inhibitory activity of the test compounds.
# Test compounds were evaluated at various concentrations in order to determine their respective IC50 values, the micromolar concentration of compound required to cause a 50% inhibition of catalytic activity of the respective enzyme.
# Some representative compounds of Formula I have been evaluated for their ability to inhibit MMP-13, MMP-1FL, MMP-3CD, MMP-7FL, MMP-8FL, MMP-9FL, MMP-12CD, MMP-14CD, and/or MMP-17CD, wherein FL means full-length enzyme and CD means a catalytic domain of the full-length enzyme. Test compounds can be evaluated at various concentrations in order to determine their respective IC50 values, the micromolar concentration of compound required to cause a 50% inhibition of the hydrolytic activity of the respective enzyme.
# Certain compounds of Formula I have also been assayed with MMP-1 full-length, MMP-3 catalytic domain, MMP-7 full-length, MMP-8 full-length, MMP-9 full-length, MMP-12 catalytic domain, MMP-14 catalytic domain, and MMP-17 catalytic domain. […] In Biological Table 2, the compound example numbers for the Compound Examples are indicated in the column labelled “Ex. No.”
smiles,measurement,setting,value
"COc1ccc(CNC(=O)c2cc3c(=O)n(Cc4ccc(C(=O)O)cc4)cnc3cn2)cc1 [Compound Example 1, 4-[6-(4-methoxy-benzylcarbamoyl)-4-oxo-4H-pyrido[3,4-d]pyrimidin-3-ylmethyl]-benzoic acid]",cartilage erosion versus vehicle control (in words),"[1]; 2 weeks, 1, 3, 10 and 30 mg/kg orally BID",inhibited in a dose dependent manner cartilage erosion
same,inhibition of cartilage erosion (surface area of erosion) versus vehicle control,[1]; 1 mg/kg orally BID,40.5%
same,rats in the treatment group that exhibited no cartilage erosion,[1]; 1 mg/kg orally BID,5/12
same,inhibition of cartilage erosion (surface area of erosion) versus vehicle control,[1]; 3 mg/kg orally BID,55.6%
same,rats in the treatment group that exhibited no cartilage erosion,"[1]; 3 mg/kg orally BID, p<0.05 versus vehicle",7/12
same,inhibition of cartilage erosion (surface area of erosion) versus vehicle control,[1]; 10 mg/kg orally BID,61.6%
same,rats in the treatment group that exhibited no cartilage erosion,"[1]; 10 mg/kg orally BID, p<0.05 versus vehicle",7/12
same,inhibition of cartilage erosion (surface area of erosion) versus vehicle control,[1]; 30 mg/kg orally BID,32.9%
same,rats in the treatment group that exhibited no cartilage erosion,[1]; 30 mg/kg orally BID,4/12
same,IC50,[2],> 100 µM
